# Laboratory results from patent US20230017045A1, “PYRIDINE AND PYRIMIDINE CARBOXYLATE HERBICIDES AND METHODS OF USE THEREOF” (Dow AgroSciences LLC, priority 2017, published 2023).
# Tested on: test plant species
# Assay: Post-emergent herbicidal activity test (greenhouse, foliar spray, visual growth reduction)
# Assay type: in vivo
# Details: post-emergence, 336 h, ALOMY: blackgrass (Alopecurus myosuroides), 140 g ai/ha, 14 days after application, read-out: Visual Growth Reduction (%) 14 Days After Application, ALOMY
# Procedure: Post-emergent Test: Seeds or nutlets of the desired test plant species were planted in Sun Gro Metro-Mix® 360 planting mixture, which typically has a pH of 6.0 to 6.8 and an organic matter content of about 30 percent, in plastic pots with a surface area of 64 square centimeters. In some aspects, to ensure good germination and healthy plants, a fungicide treatment and/or other chemical or physical treatment was applied. The plants were grown for 7-21 d in a greenhouse with an approximate 15 h photoperiod which was maintained at 23-29° C. during the day and 22-28° C. during the night. Nutrients and water were added on a regular basis and supplemental lighting was provided with overhead metal halide 1000-Watt lamps as necessary. Plants were used for testing when they reached the first or second true leaf stage. A weighed amount, determined by the highest rate to be tested, of each test compound was placed in a 25 mL glass vial and was dissolved in 4 mL of a 97:3 v/v mixture of acetone and DMSO to obtain concentrated stock solutions. […] The concentrated stock solutions obtained were diluted with 20 mL of an aqueous mixture containing acetone, water, isopropyl alcohol, DMSO, […] crop oil concentrate, and X-77 surfactant in a 48.5:39:10:1.5:1.0:0.02 v/v ratio to obtain spray solutions containing the application rate. Compound requirements are based upon a 12 mL application volume at a rate of 187 liters per hectare (L/ha). Formulated compounds were applied to the plant material with an overhead Mandel track sprayer equipped with […] nozzles calibrated to deliver 187 L/ha over an application area of 0.64 square meters at a spray height of 18 inches (43 cm) above the average plant canopy height. Control plants were sprayed in the same manner with the solvent blank. The treated plants and control plants were placed in a greenhouse as described above and watered by subirrigation to prevent wash-off of the test compounds. After 14 d, the condition of the test plants as compared with that of the nontreated and control plants was determined visually and scored on a scale of 0 to 100 percent where 0 corresponds to no injury and 100 corresponds to complete control. In the reporting of the results, Table A: Percent Growth Reduction Conversion Table was used.
row,SMILES,pest or weed control at 140 g/ha
1,"C=Cc1c(C(F)(F)F)ccc(-c2ccc(Cl)c(C(=O)OC)n2)c1Cl [F137, methyl 3-chloro-6-(2-chloro-4-(trifluoromethyl)-3-vinylphenyl)picolinate]",0 to 29%

# Same assay, conditions: post-emergence, 336 h, AMARE: redroot pigweed (Amaranthus retroflexus), 140 g ai/ha, 14 days after application, read-out: Visual Growth Reduction (%) 14 Days After Application, AMARE
row,SMILES,pest or weed control at 140 g/ha
1,"C=Cc1c(C(F)(F)F)ccc(-c2ccc(Cl)c(C(=O)OC)n2)c1Cl [F137, methyl 3-chloro-6-(2-chloro-4-(trifluoromethyl)-3-vinylphenyl)picolinate]",60 to 74%

# Same assay, conditions: post-emergence, 336 h, AVEFA: wild oat (Avena fatua), 140 g ai/ha, 14 days after application, read-out: Visual Growth Reduction (%) 14 Days After Application, AVEFA
row,SMILES,pest or weed control at 140 g/ha
1,"C=Cc1c(C(F)(F)F)ccc(-c2ccc(Cl)c(C(=O)OC)n2)c1Cl [F137, methyl 3-chloro-6-(2-chloro-4-(trifluoromethyl)-3-vinylphenyl)picolinate]",0 to 29%

# Same assay, conditions: post-emergence, 336 h, CHEAL: lambsquarters (Chenopodium album), 140 g ai/ha, 14 days after application, read-out: Visual Growth Reduction (%) 14 Days After Application, CHEAL
row,SMILES,pest or weed control at 140 g/ha
1,"C=Cc1c(C(F)(F)F)ccc(-c2ccc(Cl)c(C(=O)OC)n2)c1Cl [F137, methyl 3-chloro-6-(2-chloro-4-(trifluoromethyl)-3-vinylphenyl)picolinate]",75 to 84%

# Same assay, conditions: post-emergence, 336 h, CIRAR: canada thistle (Cirsium arvense), 140 g ai/ha, 14 days after application, read-out: Visual Growth Reduction (%) 14 Days After Application, CIRAR
row,SMILES,pest or weed control at 140 g/ha
1,"C=Cc1c(C(F)(F)F)ccc(-c2ccc(Cl)c(C(=O)OC)n2)c1Cl [F137, methyl 3-chloro-6-(2-chloro-4-(trifluoromethyl)-3-vinylphenyl)picolinate]",0 to 29%

# Same assay, conditions: post-emergence, 336 h, CYPES: yellow nutsedge (Cyperus esculentus), 140 g ai/ha, 14 days after application, read-out: Visual Growth Reduction (%) 14 Days After Application, CYPES
row,SMILES,pest or weed control at 140 g/ha
1,"C=Cc1c(C(F)(F)F)ccc(-c2ccc(Cl)c(C(=O)OC)n2)c1Cl [F137, methyl 3-chloro-6-(2-chloro-4-(trifluoromethyl)-3-vinylphenyl)picolinate]",0 to 29%

# Same assay, conditions: post-emergence, 336 h, DIGSA: crabgrass (Digitaria sanguinalis), 140 g ai/ha, 14 days after application, read-out: Visual Growth Reduction (%) 14 Days After Application, DIGSA
row,SMILES,pest or weed control at 140 g/ha
1,"C=Cc1c(C(F)(F)F)ccc(-c2ccc(Cl)c(C(=O)OC)n2)c1Cl [F137, methyl 3-chloro-6-(2-chloro-4-(trifluoromethyl)-3-vinylphenyl)picolinate]",30 to 44%

# Same assay, conditions: post-emergence, 336 h, ECHCG: barnyardgrass (Echinochloa crus-galli), 140 g ai/ha, 14 days after application, read-out: Visual Growth Reduction (%) 14 Days After Application, ECHCG
row,SMILES,pest or weed control at 140 g/ha
1,"COC(=O)c1nc(-c2cc(C)c(C(F)(F)F)cc2F)c(F)cc1Cl [F360, Methyl 3-chloro-5-fluoro-6-(2-fluoro-5-methyl-4-(trifluoromethyl)phenyl)picolinate]",0 to 29%
2,"C=Cc1c(C(F)(F)F)ccc(-c2ccc(Cl)c(C(=O)OC)n2)c1Cl [F137, methyl 3-chloro-6-(2-chloro-4-(trifluoromethyl)-3-vinylphenyl)picolinate]",0 to 29%

# Same assay, conditions: post-emergence, 336 h, IPOHE: ivy-leaf morning glory (Ipomoea hederacea), 140 g ai/ha, 14 days after application, read-out: Visual Growth Reduction (%) 14 Days After Application, IPOHE
row,SMILES,pest or weed control at 140 g/ha
1,"COC(=O)c1nc(-c2cc(C)c(C(F)(F)F)cc2F)c(F)cc1Cl [F360, Methyl 3-chloro-5-fluoro-6-(2-fluoro-5-methyl-4-(trifluoromethyl)phenyl)picolinate]",95 to 100%
2,"C=Cc1c(C(F)(F)F)ccc(-c2ccc(Cl)c(C(=O)OC)n2)c1Cl [F137, methyl 3-chloro-6-(2-chloro-4-(trifluoromethyl)-3-vinylphenyl)picolinate]",95 to 100%

# Same assay, conditions: post-emergence, 336 h, KCHSC: kochia (Bassia scoparia), 140 g ai/ha, 14 days after application, read-out: Visual Growth Reduction (%) 14 Days After Application, KCHSC
row,SMILES,pest or weed control at 140 g/ha
1,"COC(=O)c1nc(-c2cc(C)c(C(F)(F)F)cc2F)c(F)cc1Cl [F360, Methyl 3-chloro-5-fluoro-6-(2-fluoro-5-methyl-4-(trifluoromethyl)phenyl)picolinate]",45 to 59%
2,"C=Cc1c(C(F)(F)F)ccc(-c2ccc(Cl)c(C(=O)OC)n2)c1Cl [F137, methyl 3-chloro-6-(2-chloro-4-(trifluoromethyl)-3-vinylphenyl)picolinate]",0 to 29%

# Same assay, conditions: post-emergence, 336 h, ORYSA: rice (Oryza sativa), 140 g ai/ha, 14 days after application, read-out: Visual Growth Reduction (%) 14 Days After Application, ORYSA
row,SMILES,pest or weed control at 140 g/ha
1,"COC(=O)c1nc(-c2cc(C)c(C(F)(F)F)cc2F)c(F)cc1Cl [F360, Methyl 3-chloro-5-fluoro-6-(2-fluoro-5-methyl-4-(trifluoromethyl)phenyl)picolinate]",0 to 29%
2,"C=Cc1c(C(F)(F)F)ccc(-c2ccc(Cl)c(C(=O)OC)n2)c1Cl [F137, methyl 3-chloro-6-(2-chloro-4-(trifluoromethyl)-3-vinylphenyl)picolinate]",0 to 29%

# Same assay, conditions: post-emergence, 336 h, SETFA: giant foxtail (Setaria faberi), 140 g ai/ha, 14 days after application, read-out: Visual Growth Reduction (%) 14 Days After Application, SETFA
row,SMILES,pest or weed control at 140 g/ha
1,"COC(=O)c1nc(-c2cc(C)c(C(F)(F)F)cc2F)c(F)cc1Cl [F360, Methyl 3-chloro-5-fluoro-6-(2-fluoro-5-methyl-4-(trifluoromethyl)phenyl)picolinate]",0 to 29%
2,"C=Cc1c(C(F)(F)F)ccc(-c2ccc(Cl)c(C(=O)OC)n2)c1Cl [F137, methyl 3-chloro-6-(2-chloro-4-(trifluoromethyl)-3-vinylphenyl)picolinate]",0 to 29%

# Same assay, conditions: post-emergence, 336 h, SORVU: grain sorghum (Sorghum vulgare), 140 g ai/ha, 14 days after application, read-out: Visual Growth Reduction (%) 14 Days After Application, SORVU
row,SMILES,pest or weed control at 140 g/ha
1,"COC(=O)c1nc(-c2cc(C)c(C(F)(F)F)cc2F)c(F)cc1Cl [F360, Methyl 3-chloro-5-fluoro-6-(2-fluoro-5-methyl-4-(trifluoromethyl)phenyl)picolinate]",0 to 29%
2,"C=Cc1c(C(F)(F)F)ccc(-c2ccc(Cl)c(C(=O)OC)n2)c1Cl [F137, methyl 3-chloro-6-(2-chloro-4-(trifluoromethyl)-3-vinylphenyl)picolinate]",60 to 74%

# Same assay, conditions: post-emergence, 336 h, STEME: common chickweed (Stellaria media), 140 g ai/ha, 14 days after application, read-out: Visual Growth Reduction (%) 14 Days After Application, STEME
row,SMILES,pest or weed control at 140 g/ha
1,"COC(=O)c1nc(-c2cc(C)c(C(F)(F)F)cc2F)c(F)cc1Cl [F360, Methyl 3-chloro-5-fluoro-6-(2-fluoro-5-methyl-4-(trifluoromethyl)phenyl)picolinate]",0 to 29%
2,"C=Cc1c(C(F)(F)F)ccc(-c2ccc(Cl)c(C(=O)OC)n2)c1Cl [F137, methyl 3-chloro-6-(2-chloro-4-(trifluoromethyl)-3-vinylphenyl)picolinate]",0 to 29%

# Same assay, conditions: post-emergence, 336 h, TRZAS: wheat, spring (Triticum aestivum), 140 g ai/ha, 14 days after application, read-out: Visual Growth Reduction (%) 14 Days After Application, TRZAS
row,SMILES,pest or weed control at 140 g/ha
1,"COC(=O)c1nc(-c2cc(C)c(C(F)(F)F)cc2F)c(F)cc1Cl [F360, Methyl 3-chloro-5-fluoro-6-(2-fluoro-5-methyl-4-(trifluoromethyl)phenyl)picolinate]",0 to 29%
2,"C=Cc1c(C(F)(F)F)ccc(-c2ccc(Cl)c(C(=O)OC)n2)c1Cl [F137, methyl 3-chloro-6-(2-chloro-4-(trifluoromethyl)-3-vinylphenyl)picolinate]",0 to 29%

# Same assay, conditions: post-emergence, 336 h, blackgrass (Alopecurus myosuroides), 14 Days After Application, 140 g ai/ha, read-out: Visual Growth Reduction (%) ALOMY
row,SMILES,pest or weed control at 140 g/ha
1,"COC(=O)c1nc(-c2cc(C)c(C(F)(F)F)cc2F)c(F)cc1Cl [F360, Methyl 3-chloro-5-fluoro-6-(2-fluoro-5-methyl-4-(trifluoromethyl)phenyl)picolinate]",0 to 29%

# Same assay, conditions: post-emergence, 336 h, canada thistle (Cirsium arvense), 14 Days After Application, 140 g ai/ha, read-out: Visual Growth Reduction (%) CIRAR
row,SMILES,pest or weed control at 140 g/ha
1,"COC(=O)c1nc(-c2cc(C)c(C(F)(F)F)cc2F)c(F)cc1Cl [F360, Methyl 3-chloro-5-fluoro-6-(2-fluoro-5-methyl-4-(trifluoromethyl)phenyl)picolinate]",0 to 29%

# Same assay, conditions: post-emergence, 336 h, crabgrass (Digitaria sanguinalis), 14 Days After Application, 140 g ai/ha, read-out: Visual Growth Reduction (%) DIGSA
row,SMILES,pest or weed control at 140 g/ha
1,"COC(=O)c1nc(-c2cc(C)c(C(F)(F)F)cc2F)c(F)cc1Cl [F360, Methyl 3-chloro-5-fluoro-6-(2-fluoro-5-methyl-4-(trifluoromethyl)phenyl)picolinate]",0 to 29%

# Same assay, conditions: post-emergence, 336 h, lambsquarters (Chenopodium album), 14 Days After Application, 140 g ai/ha, read-out: Visual Growth Reduction (%) CHEAL
row,SMILES,pest or weed control at 140 g/ha
1,"COC(=O)c1nc(-c2cc(C)c(C(F)(F)F)cc2F)c(F)cc1Cl [F360, Methyl 3-chloro-5-fluoro-6-(2-fluoro-5-methyl-4-(trifluoromethyl)phenyl)picolinate]",95 to 100%

# Same assay, conditions: post-emergence, 336 h, redroot pigweed (Amaranthus retroflexus), 14 Days After Application, 140 g ai/ha, read-out: Visual Growth Reduction (%) AMARE
row,SMILES,pest or weed control at 140 g/ha
1,"COC(=O)c1nc(-c2cc(C)c(C(F)(F)F)cc2F)c(F)cc1Cl [F360, Methyl 3-chloro-5-fluoro-6-(2-fluoro-5-methyl-4-(trifluoromethyl)phenyl)picolinate]",95 to 100%

# Same assay, conditions: post-emergence, 336 h, wild oat (Avena fatua), 14 Days After Application, 140 g ai/ha, read-out: Visual Growth Reduction (%) AVEFA
row,SMILES,pest or weed control at 140 g/ha
1,"COC(=O)c1nc(-c2cc(C)c(C(F)(F)F)cc2F)c(F)cc1Cl [F360, Methyl 3-chloro-5-fluoro-6-(2-fluoro-5-methyl-4-(trifluoromethyl)phenyl)picolinate]",0 to 29%

# Same assay, conditions: post-emergence, 336 h, yellow nutsedge (Cyperus esculentus), 14 Days After Application, 140 g ai/ha, read-out: Visual Growth Reduction (%) CYPES
row,SMILES,pest or weed control at 140 g/ha
1,"COC(=O)c1nc(-c2cc(C)c(C(F)(F)F)cc2F)c(F)cc1Cl [F360, Methyl 3-chloro-5-fluoro-6-(2-fluoro-5-methyl-4-(trifluoromethyl)phenyl)picolinate]",0 to 29%
